The record followed here is patent US8318752B2, “4-(3-chloro-2-fluoroanilino)-7-methoxy-6-{[1-(N-methylcarbamoyl-methyl)piperidin-4-yl]oxy}quinazoline, its pharmaceutically acceptable salts, and pharmaceutical compositions comprising the same” (Astrazeneca AB, priority 2003, dated 2012).

The target of one experiment is T1, EGFR tyrosine kinase (Homo sapiens, UniProt P00533).
T1 construct: Recombinant intracellular fragments of EGFR, erbB2 and erbB4; made in house; host or cells: baculovirus/Sf21
T1 sequence (P00533 669-1210 limits assumed): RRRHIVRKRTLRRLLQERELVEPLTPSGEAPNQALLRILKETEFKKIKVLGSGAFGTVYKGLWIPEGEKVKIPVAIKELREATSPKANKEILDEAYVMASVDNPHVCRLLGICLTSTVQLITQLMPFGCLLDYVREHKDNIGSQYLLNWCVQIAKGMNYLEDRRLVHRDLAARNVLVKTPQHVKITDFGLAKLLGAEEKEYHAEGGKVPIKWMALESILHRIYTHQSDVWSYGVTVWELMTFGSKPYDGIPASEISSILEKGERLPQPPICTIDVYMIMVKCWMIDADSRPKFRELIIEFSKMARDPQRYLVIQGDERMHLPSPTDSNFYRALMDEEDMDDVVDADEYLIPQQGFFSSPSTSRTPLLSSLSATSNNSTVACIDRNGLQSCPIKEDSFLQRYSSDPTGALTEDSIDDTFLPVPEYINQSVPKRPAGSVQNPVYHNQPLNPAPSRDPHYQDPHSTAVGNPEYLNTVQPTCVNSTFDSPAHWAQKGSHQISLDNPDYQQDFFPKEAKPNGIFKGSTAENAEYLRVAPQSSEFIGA
Nature of the experiment: Protein tyrosine kinase phosphorylation assay, Test (a), EGFR. It is filed as biochemical. To be noted: recombinant intracellular fragment, ATP at Km; read-out: IC50 (μM) Test (a): Inhibition of EGFR tyrosine kinase protein phosphorylation. As to the method:
(§1) This test measures the ability of a test compound to inhibit the phosphorylation of a tyrosine containing polypeptide substrate by EGFR or ErbB2 tyrosine kinase enzyme.
(§2) Recombinant intracellular fragments of EGFR, erbB2 and erbB4 (accession numbers X00588, X03363 and L07868 respectively) were cloned and expressed in the baculovirus/Sf21 system. Lysates were prepared from these cells by treatment with ice-cold lysis buffer (20 mM N-2-hydroxyethylpiperizine-N′-2-ethanesulfonic acid (HEPES) pH7.5, 150 mM NaCl, 10% glycerol, 1% Triton X-100, 1.5 mM MgCl2, 1 mM ethylene glycol-bis(β-aminoethyl ether) N′,N′,N′,N′-tetraacetic acid (EGTA), plus protease inhibitors and then cleared by centrifugation.
(§3) Constitutive kinase activity of the recombinant protein was determined by its ability to phosphorylate a synthetic peptide (made up of a random co-polymer of Glutamic Acid, Alanine and Tyrosine in the ratio of 6:3:1). Specifically, Maxisorb™ 96-well immunoplates were coated with synthetic peptide (0.2 μg of peptide in a 100 μl phosphate buffered saline (PBS) solution and incubated at 4° C. overnight). Plates were washed in PBS-T (phosphate buffered saline with 0.5% Tween 20) then in 50 mM HEPES pH 7.4 at room temperature to remove any excess unbound synthetic peptide. […]
(§4) The immobilised phospho-peptide product of the reaction was detected by immunological methods. […] After further washing, HRP activity in each well of the plate was measured colorimetrically using 22′-Azino-di-[3-ethylbenzthiazoline sulfonate (6)] diammonium salt crystals (ABTS™ from Roche) as a substrate.
(§5) Quantification of colour development and thus enzyme activity was achieved by the measurement of absorbance at 405 nm on a Molecular Devices ThermoMax microplate reader. Kinase inhibition for a given compound was expressed as an IC50 value. […] The range of phosphorylation was calculated from the positive (vehicle plus ATP) and negative (vehicle minus ATP) control values.

The next experiment relates to KB cells. Nature of the experiment: EGFR driven KB cell proliferation assay, Test (b). The experiment is classed as cell-based. The note with it: Homo sapiens, 96 h, EGF 1 ng/ml, 4 days, MTT. As to the method:
This assay measures the ability of a test compound to inhibit the proliferation of KB cells (human naso-pharangeal carcinoma obtained from the American Type Culture Collection (ATCC).
KB cells (human naso-pharangeal carcinoma obtained from the ATCC were cultured in Dulbecco's modified Eagle's medium (DMEM) containing 10% foetal calf serum, 2 mM glutamine and non-essential amino acids at 37° C. in a 7.5% CO2 air incubator. Cells were harvested from the stock flasks using Trypsin/ethylaminediaminetetraacetic acid (EDTA). Cell density was measured using a haemocytometer and viability was calculated using trypan blue solution before being seeded at a density of 1.25×10^3 cells per well of a 96 well plate in DMEM containing 2.5% charcoal stripped serum, 1 mM glutamine and non-essential amino acids at 37° C. in 7.5% CO2 and allowed to settle for 4 hours.
Following adhesion to the plate, the cells are treated with or without EGF (final concentration of 1 ng/ml) and with or without compound at a range of concentrations in dimethylsulfoxide (DMSO) (0.1% final) before incubation for 4 days. Following the incubation period, cell numbers were determined by addition of 50 μl of 3-(4,5-Dimethylthiazol-2-yl)-2,5-diphenyltetrazolium bromide (MTT) (stock 5 mg/ml) for 2 hours. […]
Absorbance of the solubilised cells was read at 540 nm using a Molecular Devices ThermoMax microplate reader. […]

In the next experiment the target is T2, erbB2 tyrosine kinase (Homo sapiens, UniProt P04626).
T2 construct: Recombinant intracellular fragments of EGFR, erbB2 and erbB4; made in house; host or cells: baculovirus/Sf21
T2 sequence (P04626 676-1255 limits assumed): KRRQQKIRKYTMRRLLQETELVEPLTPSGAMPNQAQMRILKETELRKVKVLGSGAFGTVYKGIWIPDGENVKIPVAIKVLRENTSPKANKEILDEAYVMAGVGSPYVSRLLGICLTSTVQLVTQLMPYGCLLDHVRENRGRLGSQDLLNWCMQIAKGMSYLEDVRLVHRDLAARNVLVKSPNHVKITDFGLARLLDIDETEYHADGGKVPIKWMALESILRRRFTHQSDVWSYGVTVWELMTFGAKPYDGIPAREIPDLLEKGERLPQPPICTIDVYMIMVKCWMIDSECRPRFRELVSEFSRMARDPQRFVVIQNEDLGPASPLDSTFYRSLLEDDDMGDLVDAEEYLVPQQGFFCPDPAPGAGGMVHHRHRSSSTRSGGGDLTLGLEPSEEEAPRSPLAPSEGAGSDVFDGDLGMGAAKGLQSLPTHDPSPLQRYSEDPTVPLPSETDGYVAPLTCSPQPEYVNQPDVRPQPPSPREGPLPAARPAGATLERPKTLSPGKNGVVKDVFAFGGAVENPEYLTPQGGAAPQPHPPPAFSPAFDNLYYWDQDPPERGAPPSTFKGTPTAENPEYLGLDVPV
Nature of the experiment: Protein tyrosine kinase phosphorylation assay, Test (a), erbB2. It is filed as biochemical. To be noted: recombinant intracellular fragment, ATP at Km; read-out: IC50 (μM) Test (a): Inhibition of erbB2 tyrosine kinase protein phosphorylation. As to the method: as §1, §2, §3, §4, §5

The next experiment concerns the target T3, erbB2 (Homo sapiens, UniProt P04626).
T3 construct: overexpresses full length wild type erbB2 protein; expressed in transfected cells; host or cells: MCF7 (breast carcinoma) derived Clone 24 cells
Nature of the experiment: Clone 24 phospho-erbB2 cell assay, Test (e). The experiment is classed as cell-based. To be noted: MCF7 derived Clone 24 cells overexpressing erbB2, 4 hrs; read-out: IC50 (μM) Test (e): Inhibition of erbB2 tyrosine kinase protein phosphorylation. As to the method: This immunofluorescence end point assay measures the ability of a test compound to inhibit the phosphorylation of erbB2 in a MCF7 (breast carcinoma) derived cell line which was generated by transfecting MCF7 cells with the full length erbB2 gene using standard methods to give a cell line that overexpresses full length wild type erbB2 protein (hereinafter ‘Clone 24’ cells).
Clone 24 cells were cultured in Growth Medium (phenol red free Dulbecco's modified Eagle's medium (DMEM) containing 10% foetal bovine serum, 2 mM glutamine and 1.2 mg/ml G418) in a 7.5% CO2 air incubator at 37° C. Cells were harvested from T75 stock flasks by washing once in PBS (phosphate buffered saline, pH7.4, Gibco No. 10010-015) and harvested using 2 mls of Trypsin (1.25 mg/ml)/ethylaminediaminetetraacetic acid (EDTA) (0.8 mg/ml) solution. The cells were resuspended in Growth Medium. Cell density was measured using a haemocytometer and viability was calculated using Trypan Blue solution before being further diluted in Growth Medium and seeded at a density of 1×10^4 cells per well (in 100 ul) into clear bottomed 96 well plates (Packard, No. 6005182).
3 days later, Growth Medium was removed from the wells and replaced with 100 ul Assay Medium (phenol red free DMEM, 2 mM glutamine, 1.2 mg/ml G418) either with or without erbB inhibitor compound. Plates were returned to the incubator for 4 hrs and then 20 μl of 20% formaldehyde solution in PBS was added to each well and the plate was left at room temperature for 30 minutes. This fixative solution was removed with a multichannel pipette, 100 μl of PBS was added to each well and then removed with a multichannel pipette and then 50 μl PBS was added to each well. Plates were then sealed and stored for up to 2 weeks at 4° C.
Immunostaining was performed at room temperature. […]
The Fluorescence signal is each well was measured using an Acumen Explorer Instrument (Acumen Bioscience Ltd.), a plate reader that can be used to rapidly quantitate features of images generated by laser-scanning. […]

The IC50 is the concentration at which inhibition is half-maximal.

T3 sequence (P04626 23-1255): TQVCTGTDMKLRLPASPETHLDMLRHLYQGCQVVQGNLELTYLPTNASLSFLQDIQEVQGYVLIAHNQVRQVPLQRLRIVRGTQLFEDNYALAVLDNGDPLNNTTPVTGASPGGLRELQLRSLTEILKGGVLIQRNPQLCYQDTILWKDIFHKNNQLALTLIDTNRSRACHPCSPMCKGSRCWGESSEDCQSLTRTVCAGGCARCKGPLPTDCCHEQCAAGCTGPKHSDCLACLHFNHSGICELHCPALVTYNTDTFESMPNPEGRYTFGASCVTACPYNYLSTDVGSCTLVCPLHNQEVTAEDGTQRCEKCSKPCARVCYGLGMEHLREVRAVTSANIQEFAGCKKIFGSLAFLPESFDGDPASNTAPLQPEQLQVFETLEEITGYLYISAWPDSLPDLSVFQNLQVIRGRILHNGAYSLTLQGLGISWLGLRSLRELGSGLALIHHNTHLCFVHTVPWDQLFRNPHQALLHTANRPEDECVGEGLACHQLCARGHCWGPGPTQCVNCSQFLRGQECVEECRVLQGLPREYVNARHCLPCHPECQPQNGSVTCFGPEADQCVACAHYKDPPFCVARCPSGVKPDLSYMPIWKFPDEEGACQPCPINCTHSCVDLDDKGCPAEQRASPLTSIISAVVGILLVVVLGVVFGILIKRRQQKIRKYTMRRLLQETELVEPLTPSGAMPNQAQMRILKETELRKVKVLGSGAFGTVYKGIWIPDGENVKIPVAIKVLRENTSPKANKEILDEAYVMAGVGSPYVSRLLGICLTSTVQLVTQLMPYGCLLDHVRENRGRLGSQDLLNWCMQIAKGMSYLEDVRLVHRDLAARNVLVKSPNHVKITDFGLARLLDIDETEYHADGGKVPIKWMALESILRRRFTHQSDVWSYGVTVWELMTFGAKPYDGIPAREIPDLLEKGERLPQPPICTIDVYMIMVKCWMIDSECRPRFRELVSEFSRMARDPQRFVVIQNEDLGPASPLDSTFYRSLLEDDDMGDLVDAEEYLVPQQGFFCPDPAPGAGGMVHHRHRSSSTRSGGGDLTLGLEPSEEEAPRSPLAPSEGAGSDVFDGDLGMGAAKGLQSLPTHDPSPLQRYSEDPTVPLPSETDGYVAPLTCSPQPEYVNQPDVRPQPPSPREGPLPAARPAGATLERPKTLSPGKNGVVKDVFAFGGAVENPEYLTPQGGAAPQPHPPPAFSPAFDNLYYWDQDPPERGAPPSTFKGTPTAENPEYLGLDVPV

Turning to `CNC(=O)CN1CCC(Oc2cc3c(Nc4ccc(F)c(Cl)c4F)ncnc3cc2OC)CC1` [Example 5, 4-(3-chloro-2,4-difluoroanilino)-7-methoxy-6-{[1-(N-methycarbamoylmethyl)piperidin-4-yl]oxy}quinazoline], the IC50 worked out at 0.004 µM on EGFR tyrosine kinase, 0.009 µM with KB cells, 0.047 µM on erbB2 tyrosine kinase and 0.006 µM on erbB2.

Regarding `COc1cc2ncnc(Nc3cccc(Cl)c3F)c2cc1OC1CCN(CC(=O)NCCN2CCCC2)CC1` [Example 7, 4-(3-chloro-2-fluoroanilino)-7-methoxy-6-{[1-(N-[2-(pyrrolidin-1-yl)ethyl]carbamoylmethyl)piperidin-4-yl]oxy}quinazoline], the IC50 at EGFR tyrosine kinase stood at 0.003 µM; in the experiment with KB cells, 0.017 µM; on erbB2 tyrosine kinase it was 0.013 µM; at erbB2, 0.014 µM.

For `COc1cc2ncnc(Nc3cccc(Cl)c3F)c2cc1OC1CCN(CC(=O)N2CCN(C)CC2)CC1` [Example 10, 4-(3-chloro-2-fluoroanilino)-7-methoxy-6-({1-[2-(4-methylpiperazin-1-yl)-2-oxoethyl]piperidin-4-yl}oxy)quinazoline], the IC50 was 0.004 µM on EGFR tyrosine kinase, 0.01 µM at erbB2 tyrosine kinase and 0.013 µM at erbB2.
